Laboratory results from ChEMBL document CHEMBL1201862, “PubChem BioAssay data set” (2004).
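Briefly, cells in 96-well plates were exposed to five compound concentrations for 48 h, and endpoints were estimated by linear interpolation. At the GI50, growth is halved.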 The source made the active and inactive calls. Rule as the data show it: active = GI50 up to about 1.1 µM and inactive = higher.

How the values were obtained:
Assay in all cases: growth of human tumour cells (NCI), 48 h
786-0 = system: 786-0
A498 = system: A498
A549 = system: A549
ACHN = system: ACHN
CAKI-1 = system: CAKI-1
CCRF-CEM = system: CCRF-CEM
COLO 205 = system: COLO 205
DLD-1 = system: DLD-1
DMS-114 = system: DMS-114
DMS-273 = system: DMS-273
EKVX = system: EKVX
HCC 2998 = system: HCC 2998
HCT-116 = system: HCT-116
HCT-15 = system: HCT-15
HL-60 = system: HL-60
HOP-18 = system: HOP-18
HOP-62 = system: HOP-62
HOP-92 = system: HOP-92
HT-29 = system: HT-29
IGROV-1 = system: IGROV-1
K562 = system: K562
KM-20L2 = system: KM-20L2
KM12 = system: KM12
LOX IMVI = system: LOX IMVI
LXFL 529 = system: LXFL 529
M14 = system: M14
M19-MEL = system: M19-MEL
MOLT-4 = system: MOLT-4
Malme-3M = system: Malme-3M
NCI-H226 = system: NCI-H226
NCI-H23 = system: NCI-H23
NCI-H460 = system: NCI-H460
NCI-H522 = system: NCI-H522
OVCAR-3 = system: OVCAR-3
OVCAR-4 = system: OVCAR-4
OVCAR-5 = system: OVCAR-5
OVCAR-8 = system: OVCAR-8
RPMI-8226 = system: RPMI-8226
RXF 393 = system: RXF 393
SF-268 = system: SF-268
SF-295 = system: SF-295
SF-539 = system: SF-539
SK-MEL-2 = system: SK-MEL-2
SK-MEL-5 = system: SK-MEL-5
SK-OV-3 = system: SK-OV-3
SN12C = system: SN12C
SNB-19 = system: SNB-19
SNB-75 = system: SNB-75
SNB-78 = system: SNB-78
SR = system: SR
SW-620 = system: SW-620
TK-10 = system: TK-10
U-251 = system: U-251
UACC-257 = system: UACC-257
UACC-62 = system: UACC-62
UO-31 = system: UO-31
XF498 = system: XF498
SK-MEL-28 = system: SK-MEL-28

CC(C)(C)OC(=O)C1=C(O)C(C(=O)OC(C)(C)C)C23CCCCC12C(C(=O)OC(C)(C)C)C(O)=C3C(=O)OC(C)(C)C (stereo not given)
GI50 (786-0): > 100 µM (inactive)
GI50 (A498): > 100 µM (inactive)
GI50 (A549): > 100 µM (inactive)
GI50 (ACHN): > 100 µM (inactive)
GI50 (CAKI-1): > 100 µM (inactive)
GI50 (CCRF-CEM): > 100 µM (inactive)
GI50 (COLO 205): > 100 µM (inactive)
GI50 (DLD-1): > 100 µM (inactive)
GI50 (DMS-114): > 100 µM (inactive)
GI50 (DMS-273): > 100 µM (inactive)
GI50 (EKVX): > 100 µM (inactive)
GI50 (HCC 2998): > 100 µM (inactive)
GI50 (HCT-116): > 100 µM (inactive)
GI50 (HCT-15): > 100 µM
GI50 (HL-60): > 100 µM (inactive)
GI50 (HOP-18): > 100 µM (inactive)
GI50 (HOP-62): > 100 µM (inactive)
GI50 (HOP-92): > 100 µM (inactive)
GI50 (HT-29): > 100 µM (inactive)
GI50 (IGROV-1): > 100 µM (inactive)
GI50 (K562): > 100 µM (inactive)
GI50 (KM-20L2): > 100 µM (inactive)
GI50 (KM12): > 100 µM (inactive)
GI50 (LOX IMVI): > 100 µM (inactive)
GI50 (LXFL 529): > 100 µM (inactive)
GI50 (M14): > 100 µM (inactive)
GI50 (M19-MEL): > 100 µM (inactive)
GI50 (MOLT-4): > 100 µM (inactive)
GI50 (Malme-3M): > 100 µM (inactive)
GI50 (NCI-H226): > 100 µM (inactive)
GI50 (NCI-H23): > 100 µM (inactive)
GI50 (NCI-H460): > 100 µM (inactive)
GI50 (NCI-H522): > 100 µM (inactive)
GI50 (OVCAR-3): > 100 µM (inactive)
GI50 (OVCAR-4): > 100 µM (inactive)
GI50 (OVCAR-5): > 100 µM (inactive)
GI50 (OVCAR-8): > 100 µM (inactive)
GI50 (RPMI-8226): > 100 µM (inactive)
GI50 (RXF 393): > 100 µM (inactive)
GI50 (SF-268): > 100 µM (inactive)
GI50 (SF-295): > 100 µM (inactive)
GI50 (SF-539): > 100 µM (inactive)
GI50 (SK-MEL-2): > 100 µM (inactive)
GI50 (SK-MEL-5): > 100 µM (inactive)
GI50 (SK-OV-3): > 100 µM (inactive)
GI50 (SN12C): > 100 µM (inactive)
GI50 (SNB-19): > 100 µM (inactive)
GI50 (SNB-75): > 100 µM (inactive)
GI50 (SNB-78): > 100 µM (inactive)
GI50 (SR): > 100 µM (inactive)
GI50 (SW-620): > 100 µM (inactive)
GI50 (TK-10): > 100 µM (inactive)
GI50 (U-251): > 100 µM (inactive)
GI50 (UACC-257): > 100 µM (inactive)
GI50 (UACC-62): > 100 µM (inactive)
GI50 (UO-31): > 100 µM (inactive)
GI50 (XF498): > 100 µM (inactive)

Clc1ccc2cccc3c2c1C1OC3c2ccccc21 (stereo not given)
GI50 (786-0): > 100 µM (inactive)
GI50 (A498): > 100 µM (inactive)
GI50 (A549): > 100 µM (inactive)
GI50 (ACHN): > 100 µM (inactive)
GI50 (CCRF-CEM): > 100 µM (inactive)
GI50 (COLO 205): > 100 µM (inactive)
GI50 (DLD-1): > 100 µM (inactive)
GI50 (DMS-114): > 100 µM (inactive)
GI50 (DMS-273): > 100 µM (inactive)
GI50 (EKVX): > 100 µM (inactive)
GI50 (HCC 2998): > 100 µM (inactive)
GI50 (HCT-116): > 100 µM (inactive)
GI50 (HL-60): > 100 µM (inactive)
GI50 (HOP-18): > 100 µM (inactive)
GI50 (HOP-62): > 100 µM (inactive)
GI50 (HOP-92): 70.8 µM (inactive)
GI50 (HT-29): 36.6 µM (inactive)
GI50 (IGROV-1): > 100 µM (inactive)
GI50 (K562): 66.7 µM (inactive)
GI50 (KM-20L2): 78.9 µM (inactive)
GI50 (KM12): 71.4 µM (inactive)
GI50 (LOX IMVI): > 100 µM (inactive)
GI50 (LXFL 529): > 100 µM (inactive)
GI50 (M14): > 100 µM (inactive)
GI50 (M19-MEL): > 100 µM (inactive)
GI50 (MOLT-4): > 100 µM (inactive)
GI50 (Malme-3M): 34.4 µM (inactive)
GI50 (NCI-H226): > 100 µM (inactive)
GI50 (NCI-H23): > 100 µM (inactive)
GI50 (NCI-H522): > 100 µM (inactive)
GI50 (OVCAR-3): > 100 µM (inactive)
GI50 (OVCAR-5): > 100 µM (inactive)
GI50 (OVCAR-8): > 100 µM (inactive)
GI50 (RPMI-8226): > 100 µM (inactive)
GI50 (RXF 393): 55.5 µM (inactive)
GI50 (SF-268): > 100 µM (inactive)
GI50 (SF-295): > 100 µM (inactive)
GI50 (SF-539): > 100 µM (inactive)
GI50 (SK-MEL-28): > 100 µM (inactive)
GI50 (SK-MEL-2): > 100 µM (inactive)
GI50 (SK-OV-3): > 100 µM (inactive)
GI50 (SN12C): > 100 µM (inactive)
GI50 (SNB-19): > 100 µM (inactive)
GI50 (SNB-75): 99.8 µM (inactive)
GI50 (SNB-78): > 100 µM (inactive)
GI50 (SR): > 100 µM (inactive)
GI50 (SW-620): > 100 µM (inactive)
GI50 (TK-10): > 100 µM (inactive)
GI50 (U-251): > 100 µM (inactive)
GI50 (UACC-257): > 100 µM (inactive)
GI50 (UACC-62): > 100 µM (inactive)
GI50 (UO-31): > 100 µM (inactive)
GI50 (XF498): > 100 µM (inactive)
